Results published in US10512652B2, “Use of cymanquine compounds as antimalarial agents” (priority 2015, dated 2019).

Legend:
[1] = Cyclic voltammetry, anodic oxidation; type: physicochemical; details: irreversible, anodic peak potential, dichloromethane/0.05 M [NBu4][B(C6F5)4]
Method: Electrochemical studies were carried out. The electrolyte solution used for these studies, namely dichloromethane with 0.05 M [NBu4][B(C6F5)4] as the supporting electrolyte, is known to provide an optimum medium for the electrochemical oxidation of compounds containing the MnCp(CO)3 (Cp=η^5-C5H5) backbone (Laws et al., J. Am. Chem. Soc. 2008, 130, 9859). The potentials given here are referred to the ferrocene/ferrocenium reference couple. The experiments were carried out in a controlled atmosphere which minimizes exposure to oxygen and water. We refer to two types of standard electrochemical techniques that are commonly described in books on electrochemistry: cyclic voltammetry and bulk electrolysis (Bard, A. J.; Faulkner, L. R. Electrochemical Methods, John Wiley & Sons, New York, 2001, second edition) The former is useful for the analytical and gross mechanistic aspects of the electron-transfer properties of a compound, whereas the latter is most often employed for the electro-synthetic function of making isolable quantities of electrochemical oxidation or reduction products.
Anodic oxidation of the three compounds was investigated. […]
Table of potentials (vs ferrocene/ferrocenium (FcH)) measured by cyclic voltammetry for oxidation of compounds 3, 4, and 5 in dichloromethane/0.05 M [NBu4][B(C6F5)4]. […]

[2] = tested on: P. falciparum strain D10ydhod; assay: [3H]-hypoxanthine incorporation growth inhibition, strain D10ydhod; type: cell-based, Plasmodium falciparum; details: strain D10ydhod (expresses S. cerevisiae dihydroorotate dehydrogenase)
Method: (§1) P. falciparum strains were cultured under standard conditions in RPMI1640 medium supplemented with 0.5% Albumax in 90% N2, 5% 02 and 5% CO2. A modified version of the [^3H]-hypoxanthine incorporation method was employed for assessing growth inhibition by the inhibitor compounds. Briefly, P. falciparum strain Dd2 or strain D10ydhod (this strain express the Saccharomyces cerevisiae dihydroorotate dehydrogenase enzyme which renders mitochondrial electron transport nonessential in the parasite) parasites were seeded at 2% parasitemia in 96-well plates and treated with varying concentration of the inhibitors as well as the solvent (DMSO) for 24 h. [^3H]-Hypoxanthine was added to the cultures and incubation was continued for an additional 24 h. Incorporation of [^3H]-hypoxanthine by the parasites was determined by liquid scintillation. Growth inhibition was assessed as decrease in [^3H]-hypoxanthine incorporation in treated parasites relative to the control parasites treated with the solvent. The dose-response data were analyzed using nonlinear regression analysis (Prism GraphPad), and the EC50 was derived using an inhibitory sigmoid maximum effect (Emax) model. Each assay is completed in triplicate and the average EC50 was calculated. […]

P. falciparum strain Dd2 = assay: [3H]-hypoxanthine incorporation growth inhibition, strain Dd2; type: cell-based, Plasmodium falciparum; details: multidrug resistant strain Dd2; 24 h treatment + 24 h [3H]-hypoxanthine; average of triplicate
Method: as §1

Substance: cymanquine [Compound 3]
- Ep(1) ([1]; first oxidation): 0.82 V vs FcH
- Ep(2) ([1]; second oxidation): 1.25 V vs FcH
- potency against strain D10ydhod compared with strain Dd2 [2]: Equivalent potency
- EC50 (P. falciparum strain Dd2): ~10.8 nM
